# Laboratory results from US20210085688A1, “PHARMACEUTICAL COMBINATIONS OF EGFR INHIBITORS AND METHODS OF USE THEREOF” (DANA-FARBER CANCER INSTITUTE, INC., priority 2018, published 2021).
# Where two headings read alike, the source gives them in different places.
# Biological target: EGFR T790M/L858R Ba/F3 cell line (Homo sapiens, UniProt P00533, T790M/L858R, cells depend on it)
# Test: Ba/F3 cell proliferation (MTS assay), EGFR T790M/L858R
# Type: cell-based, murine
# Protocol: The EGFR mutant L858R, Del E746_A750, L858R/T790M, DelE746_A750/T790M, L858R/T790M/C797S and Del/T790M/C797S Ba/F3 cells were previously described (Zhou et al., Nature 462, (2009), 1070-1074). All cell lines were maintained in RPMI 1640 (Cellgro; Mediatech Inc., Herndon, Calif.) supplemented with 10% FBS 100 units/mL penicillin, 100 units/mL streptomycin, and 2 mM glutamine. L858R cells were maintained in ACL-4 media (Invitrogen, Carlsbad, Calif.) supplemented with 5% FBS, 100 units/mL penicillin, 100 units/mL streptomycin, and 2 mM glutamine. The EGFR I941R mutation was introduced via site directed mutagenesis using the Quick Change Site-Directed Mutagenesis kit (Stratagene; La Jolla, Calif.) according to the manufacturer's instructions. All constructs were confirmed by DNA sequencing. The constructs were shuttled into the retroviral vector JP1540 using the BD Creator™ System (BD Biosciences). Ba/F3 cells were infected with retrovirus and according to standard protocols, as described previously (Zhou 2009). Stable clones were obtained by selection in puromycin (2 μg/ml).
# Growth and inhibition of growth was assessed by MTS assay and was performed according to previously established methods (Zhou 2009). The MTS assay is a colorimetric method for determining the number of viable cells that is based on the bioreduction of MTS by cells to a formazan product that is soluble in cell culture medium and can be detected spectrophotometrically. […] All experimental points were set up in six wells and all experiments were repeated at least three times. […] The curves were fitted using a non-linear regression model with a sigmoidal dose response.
# [1] = absence of cetuximab, read-out: Ba/F3 cellular activity (EC50) T790M/L858R
# [2] = read-out: Ba/F3 cellular activity (EC50) T790M/L858R + Cetuximab, presence of 1 μg/mL cetuximab
# Sequence of EGFR T790M/L858R Ba/F3 cell line (P00533 whole entry T790M/L858R): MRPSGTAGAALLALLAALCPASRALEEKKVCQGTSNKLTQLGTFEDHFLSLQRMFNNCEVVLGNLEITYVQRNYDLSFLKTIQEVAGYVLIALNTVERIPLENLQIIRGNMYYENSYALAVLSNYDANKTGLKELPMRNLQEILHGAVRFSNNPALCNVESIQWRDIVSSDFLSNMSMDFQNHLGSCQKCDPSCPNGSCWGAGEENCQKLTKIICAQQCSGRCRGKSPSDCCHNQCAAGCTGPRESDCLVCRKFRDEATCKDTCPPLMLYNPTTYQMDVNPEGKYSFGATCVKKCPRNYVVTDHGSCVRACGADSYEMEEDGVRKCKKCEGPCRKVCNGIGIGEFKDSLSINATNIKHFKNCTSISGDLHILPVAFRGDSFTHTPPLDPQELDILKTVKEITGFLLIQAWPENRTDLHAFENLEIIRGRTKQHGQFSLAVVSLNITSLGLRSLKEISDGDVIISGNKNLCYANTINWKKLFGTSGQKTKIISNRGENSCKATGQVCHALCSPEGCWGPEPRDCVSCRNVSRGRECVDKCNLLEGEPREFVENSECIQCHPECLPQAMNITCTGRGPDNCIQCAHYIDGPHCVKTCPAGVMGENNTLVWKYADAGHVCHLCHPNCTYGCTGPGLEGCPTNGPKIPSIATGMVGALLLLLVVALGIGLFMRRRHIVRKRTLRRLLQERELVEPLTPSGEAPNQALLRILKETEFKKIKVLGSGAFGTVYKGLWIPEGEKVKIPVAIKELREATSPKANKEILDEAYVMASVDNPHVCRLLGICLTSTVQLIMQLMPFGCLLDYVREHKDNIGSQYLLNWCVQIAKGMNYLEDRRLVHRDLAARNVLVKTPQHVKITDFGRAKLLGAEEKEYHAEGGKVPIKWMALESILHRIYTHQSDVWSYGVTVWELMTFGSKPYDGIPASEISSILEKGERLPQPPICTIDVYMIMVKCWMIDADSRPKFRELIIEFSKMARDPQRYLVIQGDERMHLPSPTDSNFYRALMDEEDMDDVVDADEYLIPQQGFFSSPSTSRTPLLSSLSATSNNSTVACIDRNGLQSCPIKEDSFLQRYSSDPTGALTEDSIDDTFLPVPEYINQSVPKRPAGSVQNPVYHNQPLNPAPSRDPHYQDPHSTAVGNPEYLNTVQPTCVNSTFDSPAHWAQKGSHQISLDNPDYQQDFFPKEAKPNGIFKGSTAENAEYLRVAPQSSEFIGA
EC50 [1],EC50 [2],Compound
≥ 0.75 µM,0.5 to 0.75 µM,C=CC(=O)Nc1ccc2c(c1)N(Cc1ccccc1)C(=O)c1cc(-c3ccc4[nH]ccc4c3)ccc1N2 [Compound I-1]
< 0.25 µM,< 0.25 µM,O=C(CCl)Nc1ccc2c(c1)N(Cc1ccccc1)C(=O)c1cc(-c3ccc4[nH]ccc4c3)ccc1N2 [Compound I-2]
≥ 0.75 µM,≥ 0.75 µM,"C=CC(=O)Nc1ccc2c(c1)N(Cc1ccccc1)C(=O)c1cc(-c3ccc(N4CCNCC4)cc3)ccc1N2 [Compound I-3, N-(10-Benzyl-11-oxo-2-(4-(piperazin-1-yl)phenyl)-10,11-dihydro-5H-dibenzo[b,e][1,4]diazepin-8-yl)acrylamide]"
≥ 0.75 µM,0.25 to 0.5 µM,"O=C1c2cc(Br)ccc2Nc2ccc(F)cc2N1Cc1ccccc1 [I-a, 10-Benzyl-2-bromo-8-fluoro-5,10-dihydro-11H-dibenzo[b,e][1,4]diazepin-11-one]"
